According to ChEMBL document CHEMBL3596163, “Discovery of imidazo[1,5-a]pyridines and -pyrimidines as potent and selective RORc inverse agonists” (Bioorg Med Chem Lett, 2015):
Active and inactive are the calls of the source. The calls are words filed in the database; no cut-off is given here.

Experiments:
[1] = target: T1, Nuclear receptor subfamily 1 group I member 2 (Homo sapiens, UniProt O75469); assay: Antagonist activity at GAL4-fused human PXR expressed in HEK293T cells assessed as inhibition of T0901317-induced basal transcriptional activity up to 10 uM after 20 hrs by dual-glo luciferase reporter gene assay; assay type: cell-based; details: hek-293t
T1 sequence (O75469 whole entry): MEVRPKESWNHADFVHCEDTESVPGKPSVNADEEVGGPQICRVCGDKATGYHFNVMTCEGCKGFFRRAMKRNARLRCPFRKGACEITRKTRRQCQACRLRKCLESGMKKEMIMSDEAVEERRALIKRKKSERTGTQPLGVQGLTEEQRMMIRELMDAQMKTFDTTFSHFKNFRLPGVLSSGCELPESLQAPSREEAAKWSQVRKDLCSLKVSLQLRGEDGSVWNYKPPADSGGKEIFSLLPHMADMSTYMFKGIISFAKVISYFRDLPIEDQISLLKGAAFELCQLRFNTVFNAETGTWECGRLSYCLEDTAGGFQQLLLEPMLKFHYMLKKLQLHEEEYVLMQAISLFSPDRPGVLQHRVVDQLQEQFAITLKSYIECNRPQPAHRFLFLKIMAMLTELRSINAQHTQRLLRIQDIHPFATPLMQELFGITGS

[2] = target: T2, Peroxisome proliferator-activated receptor gamma (Homo sapiens, UniProt P37231); assay: Displacement of fluormone PPARgamma green from GST-tagged human PPARgamma-LBD after 2 hrs by fluorescence polarization assay
T2 sequence (P37231 whole entry): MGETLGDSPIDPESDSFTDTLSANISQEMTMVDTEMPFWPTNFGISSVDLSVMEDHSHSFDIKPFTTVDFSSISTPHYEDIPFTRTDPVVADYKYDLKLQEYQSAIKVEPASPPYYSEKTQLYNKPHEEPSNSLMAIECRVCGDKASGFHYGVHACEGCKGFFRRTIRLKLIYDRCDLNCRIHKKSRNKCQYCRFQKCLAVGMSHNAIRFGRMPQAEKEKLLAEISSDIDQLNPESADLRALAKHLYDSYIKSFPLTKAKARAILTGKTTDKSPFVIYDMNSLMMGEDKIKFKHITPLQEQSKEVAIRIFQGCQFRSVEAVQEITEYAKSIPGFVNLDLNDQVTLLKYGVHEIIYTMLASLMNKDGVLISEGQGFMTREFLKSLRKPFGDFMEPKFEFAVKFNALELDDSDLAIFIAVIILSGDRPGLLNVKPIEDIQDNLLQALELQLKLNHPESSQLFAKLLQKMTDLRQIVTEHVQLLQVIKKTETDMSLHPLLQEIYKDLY

[3] = target: T3, Nuclear receptor ROR-beta (Homo sapiens, UniProt Q92753); assay: Inverse agonist activity at GAL4-fused human RORb expressed in HEK293T cells assessed as suppression of basal transcriptional activity after 20 hrs by dual-glo luciferase reporter gene assay; assay type: cell-based, HEK-293T
T3 sequence (Q92753 whole entry): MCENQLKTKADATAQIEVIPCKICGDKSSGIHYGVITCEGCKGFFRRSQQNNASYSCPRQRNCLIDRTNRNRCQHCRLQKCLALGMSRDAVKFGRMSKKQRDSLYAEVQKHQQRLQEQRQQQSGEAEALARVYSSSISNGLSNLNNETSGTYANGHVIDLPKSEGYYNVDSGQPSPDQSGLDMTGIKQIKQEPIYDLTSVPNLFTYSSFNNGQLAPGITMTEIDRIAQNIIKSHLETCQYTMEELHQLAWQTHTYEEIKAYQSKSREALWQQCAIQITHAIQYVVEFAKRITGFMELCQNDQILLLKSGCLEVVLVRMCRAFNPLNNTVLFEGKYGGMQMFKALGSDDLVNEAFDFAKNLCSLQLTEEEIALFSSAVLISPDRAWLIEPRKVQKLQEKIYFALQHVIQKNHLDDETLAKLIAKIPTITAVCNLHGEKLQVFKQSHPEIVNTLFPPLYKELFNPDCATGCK

PBMC = assay: Antiinflammatory activity in human PBMC assessed as inhibition of IL-17 production after 48 hrs by Sandwich ELISA; assay type: functional, cell-based
[4] = target: T4, Oxysterols receptor LXR-beta (Homo sapiens) (UniProt P55055); assay: Antagonist activity at GAL4-fused human LXRbeta expressed in HEK293T cells assessed as inhibition of T0901317-induced basal transcriptional activity up to 10 uM after 20 hrs by dual-glo luciferase reporter gene assay; assay type: cell-based; details: HEK-293T
T4 sequence (whole entry): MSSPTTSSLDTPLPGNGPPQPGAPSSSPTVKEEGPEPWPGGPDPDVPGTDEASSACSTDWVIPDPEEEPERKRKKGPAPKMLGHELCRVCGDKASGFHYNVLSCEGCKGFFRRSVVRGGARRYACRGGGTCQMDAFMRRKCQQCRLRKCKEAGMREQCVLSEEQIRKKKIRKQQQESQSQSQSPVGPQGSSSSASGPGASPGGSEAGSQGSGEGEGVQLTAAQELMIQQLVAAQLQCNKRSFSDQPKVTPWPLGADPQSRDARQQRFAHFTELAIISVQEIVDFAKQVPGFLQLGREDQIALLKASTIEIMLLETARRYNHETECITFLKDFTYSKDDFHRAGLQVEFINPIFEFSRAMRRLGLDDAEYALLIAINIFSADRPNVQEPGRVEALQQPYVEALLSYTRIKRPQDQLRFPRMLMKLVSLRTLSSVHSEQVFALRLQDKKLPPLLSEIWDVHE

[5] = target: T5, Oxysterols receptor LXR-alpha (Homo sapiens, UniProt Q13133); assay: Agonist activity at GAL4-fused human LXRalpha expressed in HEK293T cells assessed as activation of basal transcriptional activity after 20 hrs by dual-glo luciferase reporter gene assay; assay type: cell-based, HEK-293T
T5 sequence (Q13133 whole entry): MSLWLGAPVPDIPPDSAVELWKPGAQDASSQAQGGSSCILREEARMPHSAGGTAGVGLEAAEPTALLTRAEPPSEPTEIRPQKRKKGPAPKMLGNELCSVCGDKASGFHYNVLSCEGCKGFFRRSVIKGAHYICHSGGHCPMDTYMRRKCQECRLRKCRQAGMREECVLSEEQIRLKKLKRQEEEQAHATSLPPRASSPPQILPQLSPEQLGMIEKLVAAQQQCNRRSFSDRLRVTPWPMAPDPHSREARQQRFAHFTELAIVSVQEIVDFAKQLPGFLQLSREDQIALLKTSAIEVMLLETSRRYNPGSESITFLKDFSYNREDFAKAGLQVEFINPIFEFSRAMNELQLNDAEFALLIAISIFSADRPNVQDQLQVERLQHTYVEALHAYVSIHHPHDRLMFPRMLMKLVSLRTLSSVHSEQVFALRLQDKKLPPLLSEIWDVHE

Compound | inhibition (INH) [1] | IC50 [2] | EC50 [3] | EC50 (PBMC) | inhibition [4] | EC50 [5]
O=C(O)c1ccc(-c2nc(C(=O)c3c(Cl)cccc3C(F)(F)F)n3ccccc23)c(F)c1 | Not Active | 320 nM | > 10000 nM | 120 nM | inactive | > 10000 nM
O=C(O)c1ccc(-c2nc(C(=O)c3c(Cl)cccc3C3CC3)n3cccnc23)cc1O | Not Active | 3400 nM | > 10000 nM | 30 nM | inactive | > 10000 nM
O=C(O)c1ccc(-c2nc(C(=O)c3c(Cl)cccc3C(F)(F)F)n3ccccc23)cc1O | Not Active | 650 nM | > 10000 nM | 17 nM | inactive | > 10000 nM
O=C(O)c1ccc(-c2nc(C(=O)c3c(Cl)cccc3C(F)(F)F)n3c2CCCC3)c(F)c1 | Not Active | 760 nM | > 10000 nM | 230 nM | inactive | > 10000 nM
O=C(O)c1ccc(-c2nc(C(=O)c3c(Cl)cccc3C(F)(F)F)n3ccccc23)cc1 | Not Active |  | > 10000 nM | 230 nM | inactive | > 10000 nM
O=C(O)c1ccc(-c2nc(C(=O)c3c(Cl)cccc3C3CC3)n3c2CCCC3)c(F)c1 | Not Active | 1300 nM | > 10000 nM | 300 nM | inactive | > 10000 nM
